# Assay results: US6660298B1, “Paroxetine tablets and capsules” (priority 2000, dated 2003)
# Where a name gives a salt, the structure may show the parent alone.
# What was measured:
# Format in all cases: physicochemical
# [1] = Solubilization enhancement with PVP K-30 and citric acid (Preparation C)
# Method: Approximately 1.0, 1.5, 1.6, 2.5 and 3.0 grams of amorphous paroxetine HCl were weighed into five 25-ml volumetric flasks. Ten milliliters of an ethanol-water (20% v/v ethanol) mixture containing 0.25 grams of polyvinyl pyrrolidone (PVP) K-30 and 0.02 grams of citric acid anhydrous were added into each of the five flasks and the flasks were sonicated for 30 minutes. Only the solution in flask 1 became clear while only part of the paroxetine HCl in flasks 2 through 5 dissolved.
# [2] = Determination of solubility in deionized water (Preparation A); settings: room temperature, sonicated 10 min, still clear after 24 hours
# Method: Approximately 45, 100, 200, 300, 400, 500, 510, 750 and 1000 mg of amorphous paroxetine HCl were weighed into nine 25-ml volumetric flasks labeled 1 through 9 respectively. Ten milliliters of deionized water were pipetted into each of the flasks and the flasks were stoppered. The flasks were then placed in a sonicator (Branson 1210, Danbury, Conn.) and sonicated for ten minutes taking care to see that there was no heating.
# [3] = Solubility in aqueous alcohol (Preparation B)
# Method: A. Exactly two milliliters of ethanol were added to each of the nine flasks from Preparation A and the flasks shaken gently by hand. […] B. Approximately 250, 320, 400, 570 and 1120 mg of amorphous paroxetine HCl were weighed into five 25-ml volumetric flasks labeled 1 through 5 respectively. Ten milliliters of ethanol-water mixture containing 20% v/v ethanol were pipetted into each of the flasks and the flasks were stoppered. The flasks were then placed in a sonicator (Branson 1210, Danbury, Conn.) and sonicated for ten minutes taking care to see that there was no heating.
Compound,"solubility at 30 min ([1]; 60 °C, aqueous with cosolvent or surfactant or cyclodextrin, thermodynamic from solid) [mg/mL]",maximum solubility ([2]; HCl),maximum solubility ([2]; listed as amorphous form of paroxetine HCl),"appearance of solution ([3]; 1120 mg in 10 ml ethanol-water 20% v/v ethanol, sonicated 10 min (flask 5))","appearance of solution ([3]; 250, 320, 400, 570 mg in 10 ml ethanol-water 20% v/v ethanol, sonicated 10 min (flasks 1-4))",amount that could be dissolved in hydroalcoholic solvent mixture ([3]; about 15% ethanol (10 ml water + 2 ml ethanol)),"appearance of solution upon heating ([1]; 1.0-3.0 g in 10 ml 20% v/v ethanol with 0.25 g PVP K-30 and 0.02 g citric acid, heated to about 60° C.)","appearance of solution ([1]; 1.0 g in 10 ml 20% v/v ethanol with 0.25 g PVP K-30 and 0.02 g citric acid, sonicated 30 min (flask 1))","extent of dissolution ([1]; 1.5, 1.6, 2.5, 3.0 g in 10 ml 20% v/v ethanol with 0.25 g PVP K-30 and 0.02 g citric acid, sonicated 30 min (flasks 2-5))"
Fc1ccc([C@@H]2CCNC[C@H]2COc2ccc3c(c2)OCO3)cc1 [Paroxetine HCl],> 300,–,–,–,–,–,–,–,–
Cl.Fc1ccc([C@@H]2CCNC[C@H]2COc2ccc3c(c2)OCO3)cc1 [amorphous paroxetine HCl],–,about 75 mg/ml,up to 75 mg/ml,clear solution with a slight precipitate,clear solutions,at least 1 gram,all the solutions became clear,became clear,only part
